Here are results for eight compounds from ChEMBL document CHEMBL5620397, “Design, synthesis and biological evaluation of 3-substituted-2-thioxothiazolidin-4-one (rhodanine) derivatives as antitubercular agents against Mycobacterium tuberculosis protein tyrosine phosphatase B” (Eur J Med Chem, 2023).

Values after ≈ are worked out from the molar mass of the structure shown.

In series [1] the target is T1, Phosphotyrosine protein phosphatase (Mycobacterium tuberculosis, UniProt A0A045ISB3).
T1 sequence (A0A045ISB3 whole entry): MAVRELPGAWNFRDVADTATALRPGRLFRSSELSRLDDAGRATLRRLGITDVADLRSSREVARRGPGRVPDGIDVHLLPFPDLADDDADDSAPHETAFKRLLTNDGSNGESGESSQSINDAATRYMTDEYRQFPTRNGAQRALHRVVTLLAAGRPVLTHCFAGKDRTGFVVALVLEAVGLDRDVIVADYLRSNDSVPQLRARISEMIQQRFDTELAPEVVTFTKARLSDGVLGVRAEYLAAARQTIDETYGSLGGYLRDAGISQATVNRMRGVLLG
The series can be described thus: Inhibition of Mycobacterium tuberculosis ptpB.

In series [2] the target is Triple specificity protein phosphatase PtpB (Mycobacterium tuberculosis (strain ATCC 25618 / H37Rv)) (UniProt I6WXK4). The series can be described thus: (§1) Inhibition of Mycobacterium tuberculosis H37Rv ptpB expressed in Escherichia coli BL21(DE3) at 50 uM using pNPP as substrate preincubated for 10 mins followed by substrate addition and measured for 5 mins by spectrophotometer analysis relative to control. The note with it: time 15.0 min.

The target of series [3] is T2, Triple specificity protein phosphatase PtpB (Mycobacterium tuberculosis (strain ATCC 25618 / H37Rv)) (UniProt I6WXK4).
T2 sequence (whole entry): T1 sequence (A0A045ISB3 whole entry)
The description is as §1. Particulars: time 15.0 min. The source holds these as a separate data set.

Series [4] has as its target T3, Triple specificity protein phosphatase PtpB (Mycobacterium tuberculosis (strain ATCC 25618 / H37Rv), UniProt I6WXK4).
T3 sequence (I6WXK4 whole entry): T1 sequence (A0A045ISB3 whole entry)
The series can be described thus: Inhibition of Mycobacterium tuberculosis H37Rv ptpB expressed in Escherichia coli BL21(DE3) using pNPP as substrate preincubated for 10 mins followed by substrate addition and measured for 5 mins by spectrophotometer analysis.

Series [5] addresses T4, Tyrosine-protein phosphatase non-receptor type 1 (Homo sapiens, UniProt P18031).
T4 sequence (P18031 whole entry): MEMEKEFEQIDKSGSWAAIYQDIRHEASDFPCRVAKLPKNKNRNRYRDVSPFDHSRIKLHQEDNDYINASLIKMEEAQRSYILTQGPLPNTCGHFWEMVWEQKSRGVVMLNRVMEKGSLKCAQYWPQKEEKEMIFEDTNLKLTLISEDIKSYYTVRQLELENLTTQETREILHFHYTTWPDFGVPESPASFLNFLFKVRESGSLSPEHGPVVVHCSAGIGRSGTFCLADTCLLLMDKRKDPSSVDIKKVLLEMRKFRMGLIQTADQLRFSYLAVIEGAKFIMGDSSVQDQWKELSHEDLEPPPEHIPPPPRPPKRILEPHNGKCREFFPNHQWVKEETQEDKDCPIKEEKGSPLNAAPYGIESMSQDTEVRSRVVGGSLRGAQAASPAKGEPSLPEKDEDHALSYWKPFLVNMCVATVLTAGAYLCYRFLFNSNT
The series can be described thus: Inhibition of recombinant human PTP1B using pNPP as substrate preincubated for 5 mins followed by substrate addition and measured for 10 mins. Format: toxicity.

For series [6], the system named is PTP1B versus M. tuberculosis ptpB. The series can be described thus: Selectivity index, ratio of IC50 for human PTP1B to Mycobacterium tuberculosis H37Rv ptpB. Format: toxicity. Particulars: read-out: Ratio IC50.
Series [7] deals with Mycobacterium tuberculosis. The series can be described thus: Antituberculosis activity against Mycobacterium tuberculosis H37Rv by microplate alamar blue assay. Format: functional.
Series [8] is described as follows: Cytotoxicity against mouse J774.G8 cells after 48 hrs by MTT assay. In kind it is functional, cell-based. Particulars: J774.G8, 48 h. Background: Tetrazolium assays rely on reduction of a dye to a coloured formazan, in cell work by metabolically active cells.
Series [9] addresses T5, Low molecular weight protein-tyrosine phosphatase A (Mycobacterium tuberculosis) (UniProt P9WIA1).
T5 sequence (whole entry): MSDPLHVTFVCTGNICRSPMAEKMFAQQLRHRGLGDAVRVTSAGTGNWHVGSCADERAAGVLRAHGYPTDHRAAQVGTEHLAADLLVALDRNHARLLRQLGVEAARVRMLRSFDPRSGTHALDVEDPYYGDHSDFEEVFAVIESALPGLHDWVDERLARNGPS
The series can be described thus: Inhibition of Mycobacterium tuberculosis H37Rv ptpA expressed in Escherichia coli BL21(DE3) at 10 uM using pNPP as substrate preincubated for 10 mins followed by substrate addition and measured for 5 mins by spectrophotometer analysis relative to control. Particulars: time 15.0 min.

Series [10] can be described thus: Metabolic stability in mouse liver microsomes in absence of NADPH by LC-MS/MS assay. Format: ADME, Microsome. For orientation: Microsomes from liver hold many membrane-bound enzymes, among them those of drug oxidation.
Series [11] is described as follows: Metabolic stability in human liver microsomes in absence of NADPH by LC-MS/MS assay. In kind it is ADME, Microsome.
Series [12] in a line: Metabolic stability in human liver microsomes assessed as substrate remaining preincubated for 5 mins followed by NADPH addition and measured upto 30 mins by LC-MS/MS assay. In kind it is ADME, Microsome. The note with it: time < 35 min, read-out: Stability.
Series [13] is described as follows: Metabolic stability in human liver microsomes assessed as half life preincubated for 5 mins followed by NADPH addition and measured upto 30 mins by LC-MS/MS assay. In kind it is ADME, Microsome. The note with it: time < 35 min.
Series [14] can be described thus: Metabolic stability in human liver microsomes assessed as intrinsic clearance per mg protein preincubated for 5 mins followed by NADPH addition and measured upto 30 mins by LC-MS/MS assay. Format: ADME, Microsome. Particulars: time < 35 min, read-out: CLH.
Series [15] in a line: Metabolic stability in mouse liver microsomes assessed as substrate remaining preincubated for 5 mins followed by NADPH addition and measured upto 30 mins by LC-MS/MS assay. Format: ADME, Microsome. Particulars: time < 35 min, read-out: Stability.
Series [16] in a line: Metabolic stability in mouse liver microsomes assessed as half life preincubated for 5 mins followed by NADPH addition and measured upto 30 mins by LC-MS/MS assay. The note with it: time < 35 min. In kind it is ADME, Microsome.
Series [17] can be described thus: Metabolic stability in mouse liver microsomes assessed as intrinsic clearance per mg protein preincubated for 5 mins followed by NADPH addition and measured upto 30 mins by LC-MS/MS assay. In kind it is ADME, Microsome. The note with it: time < 35 min, read-out: CLH.
Series [18] deals with Mycobacterium tuberculosis. The series can be described thus: Antituberculosis activity against Mycobacterium tuberculosis H37Rv in mouse J774A.1 cells assessed as reduction in intracellular bacterial burden measured after 21 days by agar plate method. Format: functional, organism-based. Particulars: J774.A1, dose 1-10 µg/ml, time 21.0 day.
The next series relates to Vero. The series can be described thus: cells. Particulars: Chlorocebus sabaeus, 48 h.
For series [19], the system named is Mycobacterium tuberculosis. The series can be described thus: Antituberculosis activity against Mycobacterium tuberculosis H37Rv in mouse J774A.1 cells assessed as reduction in intracellular bacterial burden at 0.5 ug/ml measured after 21 days by agar plate method. More on the design: scale not given: the % may be the effect or the level left. In kind it is functional, J774.A1. The note with it: dose 0.5 µg/ml; time 21 day.

In series [20] the target is T3, Triple specificity protein phosphatase PtpB. The series can be described thus: Inhibition of Mycobacterium tuberculosis H37Rv ptpB using pNPP as substrate preincubated for 10 mins followed by substrate addition and measured for 5 mins by spectrophotometer analysis.
Series [21] concerns the target T6, Low molecular weight protein-tyrosine phosphatase A (Mycobacterium tuberculosis, UniProt P9WIA1).
T6 sequence (P9WIA1 whole entry): T5 sequence (whole entry)
The series can be described thus: Inhibition of Mycobacterium tuberculosis H37Rv ptpA expressed in Escherichia coli BL21(DE3) using pNPP as substrate preincubated for 10 mins followed by substrate addition and measured for 5 mins by spectrophotometer analysis.

Series [22] can be described thus: Permeability in human Caco-2 cells at 3 uM incubated for 90 mins by LC-MS/MS analysis. In kind it is ADME, cell-based. Particulars: read-out: permeability.
Series [23] concerns Mycobacterium tuberculosis. The series can be described thus: Antituberculosis activity against Mycobacterium tuberculosis H37Rv in mouse J774A.1 cells assessed as reduction in intracellular bacterial burden at 10 ug/ml measured after 21 days by agar plate method. More on the design: scale not given: the % may be the effect or the level left. Format: functional, J774.A1. The note with it: dose 10 µg/ml; time 21 day.

Series [24] concerns Mycobacterium tuberculosis. The series can be described thus: Antituberculosis activity against Mycobacterium tuberculosis H37Rv in mouse J774A.1 cells assessed as reduction in bacterial burden at 10 ug/ml measured after 21 days in presence of RFP by agar plate method. Also noted: scale not given: the % may be the effect or the level left. Format: functional, J774.A1. The note with it: dose 10 µg/ml; time 21 day.

Description for Vero: Cytotoxicity against african green monkey Vero cells after 48 hrs by MTT assay

For orientation: IC50 means the midpoint of a concentration-inhibition curve. As to `Cc1onc(C(=O)O)c1-c1cccc(-c2cc(Cl)c(O)c(Cl)c2)c1`, the IC50 in series [1] was found to be 2980 nM.
On the same count and under the same terms, next, `O=C1OC(c2ccccc2C(F)(F)F)C(c2ccc3ccccc3n2)=C1O` (configuration not stated): 31100 nM.
For orientation: inhibition means the relative decrease from the control value, in per cent. On to SODIUM ORTHOVANAD, for which, in series [2], the inhibition was found to be 97.4%.
What is called MIC is the lowest concentration found to suppress growth. The term half-life denotes how long it takes for the measured level to halve. `O=C(O)[C@H](C1CCCCC1)N1C(=O)/C(=C/c2ccc(-c3cccc(C(F)(F)F)c3)cc2)SC1=S`: the figures for the inhibition in series [3] and in [9] were 96.5% and 16.6%, respectively. For the same compound, the IC50 in series [4] was 350 nM; in series [5], 1750 nM; in series [8], 38 µg/mL (≈ 75.2 µM); with Vero, 30.6 µg/mL (≈ 60.5 µM). The selectivity ratio in [6] stood at 5. Also, the MIC in series [7] was determined as 31.4 µg/mL (≈ 62.1 µM). Besides, the Stability result in [10] and in series [11] was “Stable” each time. In addition, the results for the remaining at 0.5 h in series [12] and in series [15] were 101% and 80%, respectively. Further, the half-life in series [13] and in series [16] was greater than 1.55 h throughout. In addition, the microsomal CLint was less than 6.1 µL/min/mg in series [14] and less than 22.1 µL/min/mg in series [17]. Further, the Activity entry in [18] is “Dose-Dependent Effect”.
In turn, `CO[C@H]1/C=C/O[C@@]2(C)Oc3c(C)c(O)c4c(O)c(c(/C=N/N5CCN(C)CC5)c(O)c4c3C2=O)NC(=O)/C(C)=C\C=C\[C@H](C)[C@H](O)[C@@H](C)[C@@H](O)[C@@H](C)[C@H](OC(C)=O)[C@@H]1C` [RIFAMPIN] came in with an MIC in series [7] of 0.023 µg/mL (≈ 0.0279 µM). In addition, the IC50 (in series [8]; in the series with Vero) was greater than 64 µg/mL in each case. The Activity in [19] was greater than 85%.
The compound `O=C1NC(=S)NC(=O)C1Cc1cc(Br)ccc1OCc1ccc(Cl)cc1` displayed an MIC in series [7] greater than 32 µg/mL. Moreover, the midpoint of inhibition in [20], the IC50, lay at 22400 nM.
In the case of `CCCC[C@@H](C(=O)O)N1C(=O)/C(=C/c2ccc(-c3cccc(C(F)(F)F)c3)cc2)SC1=S`, the inhibition in [3] stood at 104%. Further, the IC50 in [4] is 640 nM; in series [5] it was 4140 nM; in series [8], 50.3 µg/mL (≈ 105 µM); in series [21], 4060 nM; with Vero, 32.2 µg/mL (≈ 67.1 µM). Also, the selectivity ratio in series [6] was 7. In series [7], this compound returned an MIC of 31.1 µg/mL (≈ 64.9 µM). Moreover, the Stability result in series [10] and in series [11] was “Stable” each time. Also, the results for the remaining at 0.5 h in series [12] and in [15] were 95.9% and 101%, respectively. In addition, the half-life in series [13] and in series [16] was greater than 1.55 h in each case. Moreover, the microsomal CLint was less than 6.1 µL/min/mg in [14] and less than 22.1 µL/min/mg in series [17]. Further, the Papp at 1.5 h, 3 µM in series [22] worked out at 16.9 ×10⁻⁶ cm/s. In addition, the Activity entry is “Dose-Dependent Effect” in series [18], greater than 85% in series [23] and greater than 95% in [24].
`CCOC(=O)C1=C(C)Oc2nc(C)n(Cc3cn([C@@H]4O[C@H](COC(C)=O)[C@@H](OC(C)=O)[C@H](OC(C)=O)[C@H]4OC(C)=O)nn3)c(=O)c2C1c1cc(OC)c(OC)c(OC)c1` (some centres not stated) showed an IC50 in series [1] of 1560 nM.
